{
  "source": "the NIST ThermoML archive (doi:10.1016/j.fluid.2017.01.024)",
  "conditions": "Liquid, Closed cell (Static) method",
  "note": "Where “and” joins values, the source holds several entries; their conditions need not be identical. Identical values can stand only once. ± gives the expanded uncertainty stated by the source.",
  "data": [
    {"smiles": "C=C(F)C(F)(F)F", "note": "[2,3,3,3-tetrafluoro-1-propene]", "values": [
      {"measurement": "vapor or sublimation pressure", "setting": "283.15 K", "value": "437.4 ± 1.2 kPa and 437.4 ± 1.6 kPa"},
      {"measurement": "vapor or sublimation pressure", "setting": "288.15 K", "value": "509.9 ± 1.3", "unit": "kPa"},
      {"measurement": "vapor or sublimation pressure", "setting": "293.15 K", "value": "591.7 ± 2", "unit": "kPa"},
      {"measurement": "vapor or sublimation pressure", "setting": "293.16 K", "value": "591.7 ± 1.4", "unit": "kPa"},
      {"measurement": "vapor or sublimation pressure", "setting": "298.15 K", "value": "681.9 ± 1.4", "unit": "kPa"},
      {"measurement": "vapor or sublimation pressure", "setting": "303.15 K", "value": "782.5 ± 2.5 kPa and 782.5 ± 1.6 kPa"},
      {"measurement": "vapor or sublimation pressure", "setting": "308.16 K", "value": "893.6 ± 1.7", "unit": "kPa"},
      {"measurement": "vapor or sublimation pressure", "setting": "313.15 K", "value": "1017.8 ± 3.2", "unit": "kPa"},
      {"measurement": "vapor or sublimation pressure", "setting": "313.16 K", "value": "1017.8 ± 1.8", "unit": "kPa"},
      {"measurement": "vapor or sublimation pressure", "setting": "318.16 K", "value": "1153.2 ± 2", "unit": "kPa"},
      {"measurement": "vapor or sublimation pressure", "setting": "323.15 K", "value": "1301.4 ± 4.1 kPa and 1301.4 ± 2.2 kPa"}
    ]},
    {"smiles": "CCF", "note": "[fluoroethane]", "values": [
      {"measurement": "vapor or sublimation pressure", "setting": "283.15 K", "value": "601.4 ± 1.4 kPa and 601.4 ± 2 kPa"},
      {"measurement": "vapor or sublimation pressure", "setting": "288.16 K", "value": "698.2 ± 1.5", "unit": "kPa"},
      {"measurement": "vapor or sublimation pressure", "setting": "293.15 K", "value": "805.6 ± 2.6 kPa and 805.6 ± 1.6 kPa"},
      {"measurement": "vapor or sublimation pressure", "setting": "298.14 K", "value": "924.8 ± 1.7", "unit": "kPa"},
      {"measurement": "vapor or sublimation pressure", "setting": "303.15 K", "value": "1057.4 ± 3.3 kPa and 1057.4 ± 1.9 kPa"},
      {"measurement": "vapor or sublimation pressure", "setting": "308.15 K", "value": "1203.4 ± 2.1", "unit": "kPa"},
      {"measurement": "vapor or sublimation pressure", "setting": "313.15 K", "value": "1363.6 ± 4.3", "unit": "kPa"},
      {"measurement": "vapor or sublimation pressure", "setting": "313.16 K", "value": "1363.6 ± 2.3", "unit": "kPa"},
      {"measurement": "vapor or sublimation pressure", "setting": "318.15 K", "value": "1539 ± 2.5", "unit": "kPa"},
      {"measurement": "vapor or sublimation pressure", "setting": "323.15 K", "value": "1730.6 ± 5.4 kPa and 1730.6 ± 2.8 kPa"}
    ]},
    {"smiles": "FCF", "note": "[difluoromethane]", "values": [
      {"measurement": "vapor or sublimation pressure", "setting": "283.15 K", "value": "1107.3 ± 3.5", "unit": "kPa"},
      {"measurement": "vapor or sublimation pressure", "setting": "293.15 K", "value": "1474 ± 4.7", "unit": "kPa"},
      {"measurement": "vapor or sublimation pressure", "setting": "303.15 K", "value": "1925.8 ± 6.1", "unit": "kPa"},
      {"measurement": "vapor or sublimation pressure", "setting": "313.15 K", "value": "2476.2 ± 7.8", "unit": "kPa"},
      {"measurement": "vapor or sublimation pressure", "setting": "323.15 K", "value": "3138 ± 9.8", "unit": "kPa"}
    ]}
  ]
}
